Experimental findings from patent publication US6479435B1, “Diaryl ethers and processes for their preparation and herbicidal and desiccant compositions containing them” (ISK Americas Incorporated, priority 1997, dated 2002) are described below.

Holding throughout (assay type): in vivo
One assay deals with Grass Weeds. In words: Pre-emergent application in combination with other herbicides, percent control of grass weeds. The settings on record: 62.5 g ai/ha. As to the method:
All plants were grown in 10 cm square plastic pots which were filled with a sandy loam soil mix. For preemerge tests, seeds were planted one day prior to application of the test compounds. Immediately after application, test units of the pre-emerge applications were watered at the soil surface to incorporate the test materials. Subsequently, these test units were bottom-watered.
All test compounds were dissolved in acetone and applied to the test units in a volume of 187 l/ha. […] Plants were arranged on a shelf so that the top of the canopy (post-emerge) or top of the soil surface (pre-emerge) was 40-45 cm below the nozzle. Pressurized air was used to force the test solution through the nozzle as it was mechanically advanced (via electrically driven chain drive) over the top of all test plants/pots. This application simulates a typical commercial field herbicide application.
At 14 days after application of the test materials, phytotoxicity ratings were recorded. A rating scale of 0-100 was used as previously described in Research Methods in Weed Science, 2nd edition, B. Truelove, Ed., Southern Weed Science Society, Auburn University, Auburn, Ala., 1977. Briefly, “0” corresponds to no damage and “100” corresponds to complete death of all plants in the test unit. This scale was used both to determine efficacy against weed species and damage to crop species. Herbicide activity data for various compounds of this invention, which are shown by compound number in Tables 1-9, are shown in Tables 13 and 14.
(Note: Weed species abbreviations are from the Composite List of Weeds published by the Weed Science Society of America, 1989.)
The following examples illustrate the utility of combinations of compounds of this invention and existing herbicides. The methods used are identical to those for the application of single compounds except the commercial formulations of existing herbicides were added to the spray mixture in the appropriate amounts before spraying.
Combination Example 1. Pre-emergent Application of Compound 9-1 with Metolachlor
Combination Example 2. Pre-emergent Application of Compound 9-1 with Dimethenamid

The test system of assay [1] is sicklepod (Cassia obtusifolia, CASOB). In words: Pre-emerge greenhouse herbicide test, phytotoxicity rating. The settings on record: Senna obtusifolia, pre-emergence, 336 h, 14 days after application, rating scale 0-100; for pest or weed control at 125 g/ha: Rate 125 g al/ha; for pest or weed control at 500 g/ha: Rate 500 g al/ha. The essentials:
(§1)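 Seeds sown in sandy loam one day before track-sprayer application of acetone solutions at 125–1000 g ai/ha (187 l/ha), then surface-watered to incorporate and bottom-watered. Injury scored visually at 14 days on a 0–100 scale (0 no damage, 100 complete death).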

In assay [2] the test system is Johnsongrass (Sorghum halepense, SORHA). The description is as above. The settings on record: Sorghum halepense, pre-emergence, 336 h, 14 days after application, rating scale 0-100; for pest or weed control at 125 g/ha: Rate 125 g al/ha; for pest or weed control at 500 g/ha: Rate 500 g al/ha. The essentials: as §1
Assay [3] relates to barnyardgrass (Echinochloa crusgalli, ECHCG). Described as above. As to conditions: Echinochloa crus-galli, pre-emergence, 336 h, 14 days after application, rating scale 0-100; for pest or weed control at 125 g/ha: Rate 125 g al/ha; for pest or weed control at 500 g/ha: Rate 500 g al/ha. The essentials: as §1
Assay [4] concerns common ragweed (Ambrosia artemisiifolia L., AMBEL). Briefly: Post-emerge greenhouse herbicide test, phytotoxicity rating. As to conditions: 14 days after application, scale 0-100. The essentials: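 Plants at the 2-3 leaf stage, sown 8-21 days earlier, were track-sprayed post-emergence with compound in acetone plus 0.25% v/v non-ionic surfactant at 63-1000 g ai/ha (187 l/ha). Damage was rated at 14 days on a 0-100 scale (0 none, 100 all plants dead), for both crop injury and weed control.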

For assay [5] the test system is unchanged. In words: Pre-emerge greenhouse herbicide test, phytotoxicity rating. The settings on record: 14 days after application, rating scale 0-100. The essentials: as §1

As a reminder, the pest or weed control is how far the test organism was held down. A low value points to a weak effect. For `Nn1c(C(F)(F)F)cc(=O)n(-c2cc(Oc3ncccc3[N+](=O)[O-])c(Cl)cc2F)c1=O` [Compound 9-1, 1-amino-3-[4-chloro-2-fluoro-5-(3-nitro-2-pyridyloxy)phenyl]-6-trifluoromethyl-1,2,3,4-tetrahydropyrimidine-2,4-dione], in the assay with Grass Weeds, the “Percent Control of Grass Weeds DIGSA” value is recorded as 20%, the “Percent Control of Grass Weeds ECHCG” value is on record as 0%, the “Percent Control of Grass Weeds SETVI” value is 90% and the “Percent Control of Grass Weeds SORHA” value came out at 0%. Besides, in the assay on Grass Weeds (Combination Example 2), the “Percent Control of Grass Weeds DIGSA” value was determined as 20%, the “Percent Control of Grass Weeds ECHCG” value stood at 0%, the “Percent Control of Grass Weeds SETVI” value is 90% and the “Percent Control of Grass Weeds SORHA” value was found to be 0%. In assay [1], this compound gave a pest or weed control at 125 g/ha of 30% and a pest or weed control at 500 g/ha of 90%. In assay [2], this compound yielded a pest or weed control at 125 g/ha of 95% and a pest or weed control at 500 g/ha of 99%. In addition, in assay [3], the pest or weed control at 125 g/ha is 95% and the pest or weed control at 500 g/ha amounted to 100%.

For the compound `Nn1c(C(F)(F)F)cc(=O)n(-c2cc(Oc3cc(C(F)(F)F)ccn3)c(Cl)cc2F)c1=O` [Compound 9-8, 1-Amino-3-[4-chloro-2-fluoro-5-(4-trifluoromethyl-2-pyridyloxy)phenyl]-6-trifluoromethyl-1,2,3,4-tetrahydropyrimidine-2,4-dione], the values for the pest or weed control at 125 g/ha in assay [1], in assay [2] and in assay [3] were 80%, 50% and 30%, respectively. The figures for the pest or weed control at 500 g/ha in assay [1], in assay [2] and in assay [3] were 90%, 99% and 99%, respectively.

Turning to `Nn1c(C(F)(F)F)cc(=O)n(-c2cc(Oc3cc([N+](=O)[O-])cc(C(F)(F)F)c3)c(Cl)cc2F)c1=O` [Compound 9-23, 1-Amino-3-[4-chloro-2-fluoro-5-(3-nitro-5-trifluoromethylphenoxy)phenyl]-6-trifluoromethyl-1,2,3,4-tetrahydropyrimidine-2,4-dione], the figures for the pest or weed control at 125 g/ha in assay [1], in assay [2] and in assay [3] were 0%, 10% and 10%, respectively. Moreover, the pest or weed control at 500 g/ha in assay [1] came out at 10%; in assay [2] it was 70%; in assay [3], 70%.

With `Nn1c(C(F)(F)F)cc(=O)n(-c2cc(Oc3nc(F)c(F)cc3F)c(Cl)cc2F)c1=O` [Compound 9-6, 1-Amino-3-[4-chloro-2-fluoro-5-(3,5,6-trifluoro-2-pyridyloxy)phenyl]-6-trifluoromethyl-1,2,3,4-tetrahydropyrimidine-2,4-dione], the pest or weed control at 125 g/ha in assay [1], in assay [2] and in assay [3] was 90% throughout. The pest or weed control at 500 g/ha in assay [1] came to 100%; in assay [2], 90%; in assay [3], 100%.

On to `O=c1n(-c2cc(Oc3ncccn3)c(Cl)cc2F)c(=S)n2n1CCCC2` [Compound 8-29, 2-[4-chloro-2-fluoro-5-(2-pyrimidyloxy)phenyl]hexahydro-3-thioxo-1H-[1,2,4]triazolo[1,2-a]pyridazin-1-one], for which the “phytotoxicity rating AMBEL” value in assay [4] (rate 63 g ai/ha) is recorded as 90; in assay [4] (rate 500 g ai/ha), 100. For the same compound, the pest or weed control at 125 g/ha in assay [1], in assay [2] and in assay [3] was 100% each time. Further, the pest or weed control at 500 g/ha in assay [1], in assay [2] and in assay [3] was 100% in each case. For the same compound, the AMBEL phytotoxicity rating in assay [5] (Rate 125 g al/ha) and in assay [5] (Rate 500 g al/ha) was 100 in each case.

Turning to `O=c1n(-c2cc(Oc3ncccc3C(F)(F)F)c(Cl)cc2F)c(=S)n2n1CCCC2` [Compound 8-18, 2-[4-chloro-2-fluoro-5-(3-trifluoromethyl-2pyridyloxy)phenyl]hexahydro-3-thioxo-1H-[1,2,4]triazolo[1,2-a]pyridazin-1-one], the “phytotoxicity rating AMBEL” value in assay [4] (rate 63 g ai/ha) turned out to be 95; in assay [4] (rate 500 g ai/ha), 60. Moreover, the pest or weed control at 125 g/ha stood at 20% in assay [1], 40% in assay [2] and 40% in assay [3]. Further, the pest or weed control at 500 g/ha in assay [1] worked out at 40%; in assay [2], 100%; in assay [3] it was 80%. In addition, the AMBEL phytotoxicity rating in assay [5] (Rate 125 g al/ha) was found to be 100; in assay [5] (Rate 500 g al/ha), 95.
